Laboratory results published in ChEMBL document CHEMBL3991601, “The target landscape of clinical kinase drugs” (Science, 2017).
The source made the active and inactive calls. Cut-off read from the data, not from the text of the source, for most assays here: actives have a measured Kd and inactives only a lower limit.

Legend:
[1] = molecular target: T1, Interleukin-1 receptor-associated kinase 4 (Homo sapiens, UniProt Q9NWZ3)
T1 sequence (Q9NWZ3 whole entry): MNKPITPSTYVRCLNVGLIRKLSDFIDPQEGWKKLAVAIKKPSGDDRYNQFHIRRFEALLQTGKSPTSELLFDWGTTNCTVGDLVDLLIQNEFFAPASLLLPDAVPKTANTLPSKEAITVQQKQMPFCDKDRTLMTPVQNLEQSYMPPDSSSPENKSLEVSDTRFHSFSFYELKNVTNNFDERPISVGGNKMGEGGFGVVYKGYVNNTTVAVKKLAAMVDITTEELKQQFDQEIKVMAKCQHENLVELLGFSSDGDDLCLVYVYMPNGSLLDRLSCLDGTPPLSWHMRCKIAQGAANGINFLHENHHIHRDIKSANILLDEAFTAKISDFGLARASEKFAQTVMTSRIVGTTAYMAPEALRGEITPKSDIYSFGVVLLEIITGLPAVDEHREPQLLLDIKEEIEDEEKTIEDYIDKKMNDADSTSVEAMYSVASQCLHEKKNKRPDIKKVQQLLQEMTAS

[2] = molecular target: Tyrosine-protein kinase FRK (Homo sapiens, UniProt P42685)
Tyrosine-protein kinase FRK, sequence (P42685 whole entry): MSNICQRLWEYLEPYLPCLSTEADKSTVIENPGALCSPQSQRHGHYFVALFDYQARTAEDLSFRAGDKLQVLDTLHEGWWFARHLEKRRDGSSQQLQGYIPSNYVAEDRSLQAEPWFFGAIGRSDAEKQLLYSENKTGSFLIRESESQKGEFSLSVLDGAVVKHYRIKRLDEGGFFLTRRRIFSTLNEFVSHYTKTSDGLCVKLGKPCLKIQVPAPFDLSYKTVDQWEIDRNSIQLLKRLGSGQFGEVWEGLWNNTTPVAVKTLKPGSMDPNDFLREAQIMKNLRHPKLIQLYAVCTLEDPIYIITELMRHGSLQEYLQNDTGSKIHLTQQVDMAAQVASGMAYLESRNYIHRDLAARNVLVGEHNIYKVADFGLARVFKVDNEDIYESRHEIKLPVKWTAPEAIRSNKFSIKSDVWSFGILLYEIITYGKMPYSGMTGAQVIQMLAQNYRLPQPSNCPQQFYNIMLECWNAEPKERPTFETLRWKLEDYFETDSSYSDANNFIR

Focal adhesion kinase 1 = Focal adhesion kinase 1 (Homo sapiens, UniProt Q05397)
Focal adhesion kinase 1, sequence (Q05397 whole entry, the tested form may be a part): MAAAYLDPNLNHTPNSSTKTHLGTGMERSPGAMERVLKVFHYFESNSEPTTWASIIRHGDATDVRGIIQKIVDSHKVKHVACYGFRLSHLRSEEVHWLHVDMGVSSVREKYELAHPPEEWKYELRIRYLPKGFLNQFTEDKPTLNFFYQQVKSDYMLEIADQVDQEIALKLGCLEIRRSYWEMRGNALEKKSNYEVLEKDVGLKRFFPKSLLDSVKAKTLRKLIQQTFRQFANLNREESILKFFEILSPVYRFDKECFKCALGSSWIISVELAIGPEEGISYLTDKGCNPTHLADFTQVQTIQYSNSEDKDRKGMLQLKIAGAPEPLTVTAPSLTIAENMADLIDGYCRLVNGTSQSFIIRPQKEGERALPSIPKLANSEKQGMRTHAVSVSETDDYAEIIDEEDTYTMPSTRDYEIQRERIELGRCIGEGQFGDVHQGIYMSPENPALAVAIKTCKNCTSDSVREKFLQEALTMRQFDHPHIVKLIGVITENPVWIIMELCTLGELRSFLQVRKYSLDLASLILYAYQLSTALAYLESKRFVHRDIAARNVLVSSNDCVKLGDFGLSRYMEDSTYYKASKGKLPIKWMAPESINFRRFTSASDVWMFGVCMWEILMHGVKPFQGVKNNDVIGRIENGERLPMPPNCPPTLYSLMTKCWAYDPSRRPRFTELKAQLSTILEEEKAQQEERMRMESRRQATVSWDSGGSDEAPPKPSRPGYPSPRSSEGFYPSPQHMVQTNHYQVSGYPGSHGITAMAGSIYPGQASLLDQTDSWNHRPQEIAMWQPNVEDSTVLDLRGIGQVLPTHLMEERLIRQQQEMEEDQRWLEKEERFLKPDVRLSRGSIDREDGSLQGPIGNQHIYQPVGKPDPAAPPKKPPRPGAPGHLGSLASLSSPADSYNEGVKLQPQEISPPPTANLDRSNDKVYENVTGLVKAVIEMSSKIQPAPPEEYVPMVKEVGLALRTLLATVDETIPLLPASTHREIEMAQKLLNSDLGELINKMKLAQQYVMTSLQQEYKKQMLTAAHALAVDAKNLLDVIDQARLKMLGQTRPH

[3] = molecular target: T2, AarF domain-containing protein kinase 1 (Homo sapiens, UniProt Q86TW2)
T2 sequence (Q86TW2 whole entry): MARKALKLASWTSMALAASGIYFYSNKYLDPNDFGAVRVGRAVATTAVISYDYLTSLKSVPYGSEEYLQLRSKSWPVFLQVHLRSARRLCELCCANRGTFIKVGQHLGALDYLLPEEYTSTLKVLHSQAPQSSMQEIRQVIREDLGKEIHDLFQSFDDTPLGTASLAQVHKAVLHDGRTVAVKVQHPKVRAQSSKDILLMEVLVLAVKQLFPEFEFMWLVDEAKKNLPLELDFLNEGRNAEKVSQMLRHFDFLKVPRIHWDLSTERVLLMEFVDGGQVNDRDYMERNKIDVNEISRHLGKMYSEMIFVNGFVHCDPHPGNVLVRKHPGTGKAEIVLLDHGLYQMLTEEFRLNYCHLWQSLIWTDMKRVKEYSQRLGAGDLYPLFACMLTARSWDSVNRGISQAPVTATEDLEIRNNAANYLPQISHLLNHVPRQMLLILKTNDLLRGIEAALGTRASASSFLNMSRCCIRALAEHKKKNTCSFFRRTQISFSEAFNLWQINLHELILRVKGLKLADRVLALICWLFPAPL

[4] = molecular target: Receptor-interacting serine/threonine-protein kinase 3 (Homo sapiens, UniProt Q9Y572)
Receptor-interacting serine/threonine-protein kinase 3, sequence (Q9Y572 whole entry): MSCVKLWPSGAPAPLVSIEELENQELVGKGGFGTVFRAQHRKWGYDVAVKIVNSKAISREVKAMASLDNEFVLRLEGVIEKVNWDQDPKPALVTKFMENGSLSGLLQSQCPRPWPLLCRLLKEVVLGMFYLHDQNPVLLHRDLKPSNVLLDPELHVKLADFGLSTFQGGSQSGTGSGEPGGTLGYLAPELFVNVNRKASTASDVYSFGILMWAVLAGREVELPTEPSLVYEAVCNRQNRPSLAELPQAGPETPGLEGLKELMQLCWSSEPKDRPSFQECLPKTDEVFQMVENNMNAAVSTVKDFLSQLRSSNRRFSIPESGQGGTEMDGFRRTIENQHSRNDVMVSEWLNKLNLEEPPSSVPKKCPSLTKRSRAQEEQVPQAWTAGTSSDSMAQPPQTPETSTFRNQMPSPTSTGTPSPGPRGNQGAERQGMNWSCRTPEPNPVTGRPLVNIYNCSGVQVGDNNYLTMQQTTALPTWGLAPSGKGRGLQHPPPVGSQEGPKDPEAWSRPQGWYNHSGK

[5] = molecular target: Mitotic checkpoint serine/threonine-protein kinase BUB1 (Homo sapiens, UniProt O43683)
Mitotic checkpoint serine/threonine-protein kinase BUB1, sequence (O43683 whole entry): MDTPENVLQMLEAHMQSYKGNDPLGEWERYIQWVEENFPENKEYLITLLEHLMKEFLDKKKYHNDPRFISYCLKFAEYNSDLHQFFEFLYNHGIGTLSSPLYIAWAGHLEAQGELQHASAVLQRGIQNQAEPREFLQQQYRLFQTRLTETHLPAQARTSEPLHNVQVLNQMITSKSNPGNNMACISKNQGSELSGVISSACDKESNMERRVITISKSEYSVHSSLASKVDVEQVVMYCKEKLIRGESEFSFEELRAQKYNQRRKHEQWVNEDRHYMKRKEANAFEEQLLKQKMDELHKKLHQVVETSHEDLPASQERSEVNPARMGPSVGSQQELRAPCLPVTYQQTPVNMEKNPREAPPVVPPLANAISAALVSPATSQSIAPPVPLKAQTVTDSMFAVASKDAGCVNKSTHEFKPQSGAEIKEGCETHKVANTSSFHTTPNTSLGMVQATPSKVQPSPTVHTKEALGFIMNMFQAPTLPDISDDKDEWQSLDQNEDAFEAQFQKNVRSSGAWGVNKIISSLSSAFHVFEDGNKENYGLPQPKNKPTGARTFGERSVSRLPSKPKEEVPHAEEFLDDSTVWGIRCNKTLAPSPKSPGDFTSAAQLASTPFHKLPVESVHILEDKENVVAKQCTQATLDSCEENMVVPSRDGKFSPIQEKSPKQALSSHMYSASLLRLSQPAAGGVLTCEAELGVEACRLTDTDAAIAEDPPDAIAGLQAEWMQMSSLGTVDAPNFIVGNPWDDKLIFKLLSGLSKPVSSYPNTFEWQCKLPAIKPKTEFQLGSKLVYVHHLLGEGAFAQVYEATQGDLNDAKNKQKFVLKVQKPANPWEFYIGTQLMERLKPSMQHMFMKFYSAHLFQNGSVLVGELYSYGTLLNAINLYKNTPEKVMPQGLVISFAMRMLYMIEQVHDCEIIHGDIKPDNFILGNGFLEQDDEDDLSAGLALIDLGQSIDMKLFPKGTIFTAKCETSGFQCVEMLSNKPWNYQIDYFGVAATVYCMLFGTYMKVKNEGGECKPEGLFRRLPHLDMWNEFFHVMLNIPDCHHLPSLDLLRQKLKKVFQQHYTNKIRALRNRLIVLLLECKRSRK

[6] = molecular target: Membrane-associated progesterone receptor component 1 (Homo sapiens, UniProt O00264)
Membrane-associated progesterone receptor component 1, sequence (O00264 whole entry): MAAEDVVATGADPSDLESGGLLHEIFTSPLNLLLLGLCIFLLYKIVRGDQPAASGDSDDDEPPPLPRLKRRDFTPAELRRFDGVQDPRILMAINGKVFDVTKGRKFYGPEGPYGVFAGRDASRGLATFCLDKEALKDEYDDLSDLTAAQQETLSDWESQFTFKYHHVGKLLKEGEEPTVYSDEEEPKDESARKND

[7] = molecular target: T3, Serine/threonine-protein kinase 4 (Homo sapiens, UniProt Q13043)
T3 sequence (Q13043 whole entry): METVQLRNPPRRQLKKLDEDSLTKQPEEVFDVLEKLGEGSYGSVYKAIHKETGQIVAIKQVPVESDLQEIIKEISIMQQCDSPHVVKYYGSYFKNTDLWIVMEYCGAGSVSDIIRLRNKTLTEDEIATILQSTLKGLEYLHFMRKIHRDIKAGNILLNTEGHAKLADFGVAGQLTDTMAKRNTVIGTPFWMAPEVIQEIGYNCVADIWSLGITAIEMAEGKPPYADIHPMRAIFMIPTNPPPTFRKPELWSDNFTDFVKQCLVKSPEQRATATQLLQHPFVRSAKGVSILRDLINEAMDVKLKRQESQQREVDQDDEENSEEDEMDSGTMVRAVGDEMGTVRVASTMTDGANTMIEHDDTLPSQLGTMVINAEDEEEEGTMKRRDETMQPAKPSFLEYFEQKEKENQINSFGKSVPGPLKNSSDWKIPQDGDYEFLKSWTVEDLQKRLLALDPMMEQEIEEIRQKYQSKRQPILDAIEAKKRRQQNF

[8] = molecular target: T4, Bone morphogenetic protein receptor type-2 (Homo sapiens, UniProt Q13873)
T4 sequence (Q13873 whole entry): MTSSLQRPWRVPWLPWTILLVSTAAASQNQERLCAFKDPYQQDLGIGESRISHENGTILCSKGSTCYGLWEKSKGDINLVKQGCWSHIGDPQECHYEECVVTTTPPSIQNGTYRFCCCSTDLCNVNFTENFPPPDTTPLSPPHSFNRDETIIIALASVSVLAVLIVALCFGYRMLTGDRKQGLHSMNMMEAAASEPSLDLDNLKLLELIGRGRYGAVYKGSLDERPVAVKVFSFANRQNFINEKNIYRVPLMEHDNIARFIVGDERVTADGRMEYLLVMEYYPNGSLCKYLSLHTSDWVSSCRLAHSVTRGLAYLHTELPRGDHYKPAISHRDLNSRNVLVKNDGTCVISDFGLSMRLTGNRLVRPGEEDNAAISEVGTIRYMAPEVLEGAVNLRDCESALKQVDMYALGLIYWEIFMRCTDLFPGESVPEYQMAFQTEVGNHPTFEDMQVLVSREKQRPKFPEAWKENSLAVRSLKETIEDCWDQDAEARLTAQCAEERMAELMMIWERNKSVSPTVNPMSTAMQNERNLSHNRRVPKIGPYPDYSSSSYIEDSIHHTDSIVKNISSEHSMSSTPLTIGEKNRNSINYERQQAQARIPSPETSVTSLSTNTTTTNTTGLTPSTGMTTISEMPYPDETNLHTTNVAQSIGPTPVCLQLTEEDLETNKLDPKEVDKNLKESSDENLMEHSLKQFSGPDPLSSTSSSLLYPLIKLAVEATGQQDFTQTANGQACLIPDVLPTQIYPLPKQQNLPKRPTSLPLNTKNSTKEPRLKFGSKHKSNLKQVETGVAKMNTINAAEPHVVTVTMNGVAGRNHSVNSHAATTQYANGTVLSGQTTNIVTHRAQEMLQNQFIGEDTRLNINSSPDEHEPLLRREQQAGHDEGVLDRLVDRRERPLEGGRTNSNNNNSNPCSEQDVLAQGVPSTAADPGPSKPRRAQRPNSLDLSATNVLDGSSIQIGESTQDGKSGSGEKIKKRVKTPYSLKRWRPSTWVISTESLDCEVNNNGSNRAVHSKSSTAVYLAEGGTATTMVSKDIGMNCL
Note: in the data inactive means no Kd found up to 30 µM.

Kd [1] | Kd [2] | Kd (Focal adhesion kinase 1) | Kd [3] | Kd [4] | Kd [5] | Kd [6] | Kd [7] | Kd [8] | SMILES
> 30 µM (inactive) | > 30 µM (inactive) | > 30 µM (inactive) | > 30 µM (inactive) | > 30 µM (inactive) | > 30 µM (inactive) | > 30 µM (inactive) | > 30 µM (inactive) | > 30 µM (inactive) | C[C@@H](Oc1cc(C(=O)Nc2ccc(C(=O)N3CCN(C)CC3)cc2)nnc1N)c1c(Cl)ccc(F)c1Cl
> 30 µM (inactive) | > 30 µM (inactive) | > 30 µM (inactive) | > 30 µM (inactive) | > 30 µM (inactive) | > 30 µM (inactive) | > 30 µM (inactive) | > 30 µM (inactive) | > 30 µM (inactive) | C[C@H]1CNCCCN1S(=O)(=O)c1cccc2cncc(F)c12
> 30 µM (inactive) | 0.736 µM (active) | > 30 µM (inactive) | > 30 µM (inactive) | > 30 µM (inactive) | > 30 µM (inactive) | > 30 µM (inactive) | 1.26 µM (active) | > 30 µM (inactive) | CCNC(=O)C#Cc1ccc2c(c1)NC(=O)/C2=C(\Nc1ccc(CN(C)C)cc1)c1ccccc1
> 30 µM (inactive) | > 30 µM (inactive) | > 30 µM (inactive) | > 30 µM (inactive) | > 30 µM (inactive) | > 30 µM (inactive) | > 30 µM (inactive) | > 30 µM (inactive) | > 30 µM (inactive) | C=CC(=O)N1CCC[C@H](n2c(=O)n(-c3ccc(Oc4ccccc4)cc3)c3c(N)ncnc32)C1
> 30 µM (inactive) | > 30 µM (inactive) | > 30 µM (inactive) | > 30 µM (inactive) | 2.38 µM (active) | > 30 µM (inactive) | > 30 µM (inactive) | > 30 µM (inactive) | > 30 µM (inactive) | Cc1nc2cc(-c3nn(C(C)C)c4ncnc(N)c34)ccc2o1
> 30 µM (inactive) | > 30 µM (inactive) | > 30 µM (inactive) | > 30 µM (inactive) | 6.45 µM (active) | > 30 µM (inactive) | > 30 µM (inactive) | 3.77 µM (active) | > 30 µM (inactive) | Nc1ncnc2c1c(-c1cccc(OCc3ccccc3)c1)cn2[C@H]1C[C@@H](CN2CCC2)C1 [AEW-541]
> 30 µM (inactive) | > 30 µM (inactive) | > 30 µM (inactive) | > 30 µM (inactive) | > 30 µM (inactive) | > 30 µM (inactive) | > 30 µM (inactive) | > 30 µM (inactive) | > 30 µM (inactive) | Cc1csc(-c2nnc(Nc3ccc(Oc4ncccc4-c4ccnc(N)n4)cc3)c3ccccc23)c1 [AMG-900]
> 30 µM (inactive) | > 30 µM (inactive) | > 30 µM (inactive) | 0.559 µM (active) | > 30 µM (inactive) | 0.094 µM (active) | > 30 µM (inactive) | > 30 µM (inactive) | 0.043 µM (active) | O=C(Nc1c[nH]nc1-c1nc2cc(CN3CCOCC3)ccc2[nH]1)NC1CC1 [AT-9283]
> 30 µM (inactive) | > 30 µM (inactive) | > 30 µM (inactive) | > 30 µM (inactive) | > 30 µM (inactive) | > 30 µM (inactive) | > 30 µM (inactive) | > 30 µM (inactive) | > 30 µM (inactive) | C=CC(=O)Nc1cc2c(Nc3ccc(F)c(Cl)c3)ncnc2cc1C#CC(C)(C)N1CCN(C)CC1 [AV-412 FREE BASE]
> 30 µM (inactive) | > 30 µM (inactive) | > 30 µM (inactive) | > 30 µM (inactive) | > 30 µM (inactive) | > 30 µM (inactive) | > 30 µM (inactive) | > 30 µM (inactive) | > 30 µM (inactive) | Cn1cnc2c(F)c(Nc3ccc(Br)cc3F)c(C(=O)NOCCO)cc21 [BINIMETINIB]
> 30 µM (inactive) | > 30 µM (inactive) | > 30 µM (inactive) | > 30 µM (inactive) | > 30 µM (inactive) | > 30 µM (inactive) | > 30 µM (inactive) | > 30 µM (inactive) | > 30 µM (inactive) | CCn1c(C(=O)N(C2CC2)C2CC2)cc2c3c(ncn3C)c(Nc3cc(C)n(C)n3)nc21 [BMS-911543]
> 30 µM (inactive) | 0.85 µM | > 30 µM (inactive) | > 30 µM (inactive) | 0.245 µM | > 30 µM (inactive) | > 30 µM (inactive) | > 30 µM (inactive) | > 30 µM (inactive) | COc1cc2ncnc(Oc3cccc(NC(=O)Nc4cc(C(C)(C)C(F)(F)F)on4)c3)c2cc1OC [CEP-32496]
> 30 µM (inactive) | > 30 µM (inactive) | > 30 µM (inactive) | > 30 µM (inactive) | > 30 µM (inactive) | > 30 µM (inactive) | > 30 µM (inactive) | > 30 µM (inactive) | > 30 µM (inactive) | COCC(=O)NC/C=C/c1ccc2ncnc(Nc3ccc(Oc4ccc(C)nc4)c(C)c3)c2c1 [CP-724714]
> 30 µM (inactive) | > 30 µM (inactive) | > 30 µM (inactive) | > 30 µM (inactive) | > 30 µM (inactive) | 0.961 µM (active) | > 30 µM (inactive) | > 30 µM (inactive) | > 30 µM (inactive) | C#Cc1cccc(Nc2ncnc3cc(OC)c(OCCCCCCC(=O)NO)cc23)c1 [CUDC-101]

SMILES | Kd [1] | Kd [2] | Kd (Focal adhesion kinase 1) | Kd [3] | Kd [4] | Kd [5] | Kd [6] | Kd [7] | Kd [8]
COc1cc([C@@H]2c3cc4c(cc3[C@H](O)[C@H]3COC(=O)[C@@H]23)OCO4)cc(OC)c1OC [AXL-1717] | > 30 µM (inactive) | > 30 µM (inactive) | > 30 µM (inactive) | > 30 µM (inactive) | > 30 µM (inactive) | > 30 µM (inactive) | > 30 µM (inactive) | > 30 µM (inactive) | > 30 µM (inactive)
